Here are results for one substance from patent US20030049337A1, “Composition for preventing fructose absorption” (NAGAOKA PERFUMERY CO., LTD, priority 2001, published 2003).

This data set has as its system Wistar SPF rats. The note with it: rat, in vivo. The procedure:
The subacute toxicity test by oral administration was conducted using Wistar SPF rats. That is, the rats were divided into the control group (n=7) to which the athrocytosis of the usual feed is carried out, and the eucalyptus group (n=7) to which the athrocytosis of the feed which mixed the eucalyptus extract of 1 volume % with usual feed is carried out, and bred each individually. The rats of these groups were made to carry out free ingestion of feed and the potable water.
The amount of food ingested and the amount of drinking water of rats of these groups were measured every day, and weight change was measured twice per week. The test was continued for five weeks. After the test end, by collecting blood from the heart, rats were made to die and pathological changes, malformation, etc. of each organization, such as internal organs, were confirmed after dissection.

Turning to eucalyptus extract, the “amount of cholesterol in liver vs control group” value is “significant difference was not observed”, the “amount of drinking water vs control group” value is given as “significant difference was not accepted”, the “amount of food ingested vs control group” value is “significant difference was not accepted” and the “amount of triglyceride in liver vs control group” value was “significant difference was not observed”. Also, the “weight change vs control group” value is listed as “significant difference was not accepted”.
